Measurements from the NIST ThermoML archive (doi:10.1016/j.jct.2015.02.008).
± gives the expanded uncertainty stated by the source.

Key:
[1] = molar heat capacity at saturation pressure; details: Vacuum adiabatic calorimetry
[2] = Molar enthalpy of transition or fusion; details: Crystal; Adiabatic calorimetry

Oc1cccc2ccccc12 [1-naphthol]
molar heat capacity [J/K/mol], [1]
Details | Crystal | Liquid
18.3 K | 10.52 ± 0.075 | –
20 K | 12.18 ± 0.083 | –
20.23 K | 12.41 ± 0.083 | –
22.38 K | 14.54 ± 0.1 | –
24.77 K | 16.86 ± 0.11 | –
27.44 K | 19.4 ± 0.12 | –
30 K | 21.7 ± 0.067 | –
30.38 K | 22.03 ± 0.067 | –
33.63 K | 24.81 ± 0.075 | –
37.26 K | 27.77 ± 0.075 | –
40 K | 29.84 ± 0.075 | –
41.28 K | 30.77 ± 0.083 | –
45.76 K | 34.06 ± 0.083 | –
50 K | 36.83 ± 0.091 | –
50.77 K | 37.31 ± 0.091 | –
51.97 K | 38.07 ± 0.091 | –
56.32 K | 40.7 ± 0.1 | –
56.46 K | 40.78 ± 0.1 | –
60 K | 42.91 ± 0.1 | –
61.85 K | 43.99 ± 0.1 | –
68.38 K | 47.41 ± 0.11 | –
70 K | 48.25 ± 0.11 | –
75.62 K | 51.08 ± 0.12 | –
80 K | 53.33 ± 0.12 | –
83.14 K | 54.91 ± 0.12 | –
90 K | 58.16 ± 0.2 | –
91.41 K | 58.81 ± 0.2 | –
100 K | 62.77 ± 0.21 | –
100.48 K | 62.99 ± 0.21 | –
110.08 K | 67.46 ± 0.21 | –
119.95 K | 72.21 ± 0.21 | –
120 K | 72.23 ± 0.21 | –
130.14 K | 77.14 ± 0.22 | –
140 K | 82.08 ± 0.22 | –
140.31 K | 82.24 ± 0.22 | –
150.42 K | 87.34 ± 0.22 | –
160 K | 92.43 ± 0.22 | –
160.43 K | 92.66 ± 0.22 | –
170.36 K | 98.04 ± 0.23 | –
180 K | 103.34 ± 0.24 | –
180.29 K | 103.5 ± 0.24 | –
190.33 K | 109.13 ± 0.24 | –
200 K | 114.64 ± 0.25 | –
200.45 K | 114.9 ± 0.25 | –
210.56 K | 120.76 ± 0.26 | –
220 K | 126.26 ± 0.27 | –
220.64 K | 126.63 ± 0.27 | –
230.69 K | 132.62 ± 0.27 | –
240 K | 138.13 ± 0.27 | –
240.71 K | 138.54 ± 0.27 | –
250.73 K | 144.61 ± 0.28 | –
260 K | 150.24 ± 0.29 | –
260.74 K | 150.69 ± 0.29 | –
270.62 K | 156.67 ± 0.3 | –
280 K | 162.4 ± 0.31 | –
280.51 K | 162.71 ± 0.31 | –
290.52 K | 168.83 ± 0.31 | –
298.15 K | 173.51 ± 0.32 | –
300 K | 174.64 ± 0.32 | –
300.53 K | 174.97 ± 0.32 | –
310.57 K | 180.81 ± 0.32 | –
320 K | 186.29 ± 0.33 | –
320.58 K | 186.63 ± 0.33 | –
331.02 K | 192.65 ± 0.34 | –
340 K | 197.95 ± 0.34 | –
341.47 K | 198.62 ± 0.35 | –
351.79 K | 205.33 ± 0.35 | –
360 K | 210.16 ± 0.36 | –
360.7 K | 210.52 ± 0.36 | –
368.49 K | 215.56 ± 0.37 | 279.12 ± 0.44
375.44 K | – | 281.15 ± 0.44
375.53 K | – | 281.2 ± 0.44
380 K | – | 282.47 ± 0.44
382.75 K | – | 283.25 ± 0.44
389.88 K | – | 285.37 ± 0.45
400 K | – | 288.35 ± 0.45
405.81 K | – | 290.05 ± 0.45
420 K | – | 294.27 ± 0.46
423.59 K | – | 295.34 ± 0.46
438.9 K | – | 299.86 ± 0.47
440 K | – | 300.19 ± 0.47

Details | Molar enthalpy of transition or fusion [kcal/mol]
[2] | 5.798 ± 0.00741
